≈ marks a conversion by molar mass, not a printed value. Read-outs that look alike come from different tables or passages of the source. Where a SMILES comes first, the peptide text is derived from it. The star is where a group is joined. Myristoyl = CCCCCCCCCCCCCC(=O)*
Legend:
[1] = system: C. tropicalis clinical isolates; format: cell-based, Candida tropicalis; conditions: for MIC90: clinical isolates, 16 h; for MIC: CLSI broth microdilution, RPMI 1640
Protocol: (§1) The antifungal activity of AMPs was determined against 50 clinical isolates, 10 for each of the following Candida species: C. albicans, C. tropicalis, C. glabrata, C. parapsilosis, and C. auris. The latter were derived from patients with positive blood cultures in four hospitals in India, with known resistance profiles to fluconazole, voriconazole, and echinocandins. Yeast cells were grown in Brain Heart Infusion (BHI) medium (Sigma-Aldrich, Gillingham, UK) for 16 h at 37 °C in a 150-rpm orbital shaker. Cells were then sub-inoculated in a fresh BHI medium and grown to an optical density (OD) of 0.3. The turbidity of the inoculum was adjusted to 0.5 McFarland and diluted 1:500 in RPMI 1640 broth, corresponding to around […].
(§2) Minimal inhibitory concentrations (MICs) were determined by Broth microdilution susceptibility tests, according to The Clinical and Laboratory Standards Institute (CLSI) international guidelines. A fungal suspension of 0.5 MacFarland was diluted 1:500 in RPMI 1640 broth and incubated in 96 multi-well plates containing AMPs at different concentrations ranging from 0.125 to 256 μg/mL. In this range of concentration, lipopeptides were completely soluble. […] The MIC90 represents the value at which ≥90% of the strains within a test population were inhibited.

[2] = Critical micellar concentration (CMC) determination with ANS fluorescent probe; format: physicochemical; conditions: ANS fluorescence (70 μM ANS, λex 356 nm, emission 465 nm) in water, peptide 0.8–10.0 μM, 298 K, intersection of the two lines
Protocol: Lipopeptides usually self-assemble in organized structures that have attracted interest because of their enhanced bactericidal and fungicidal effects. The self-assembly of myristoylated peptides was evaluated by determining the critical micellar concentration (CMC) that represents the concentration of spontaneous associations of monomers by a spectrofluorometric method. 8-anilinonaphtalene-1-sulfonate (ANS) was used as a fluorescent probe since its fluorescence is very sensitive to the microenvironment, showing a blue shift and intensity increase upon changing from a polar to non-polar medium. Therefore, the fluorescence of ANS was monitored as a function of the lipopeptide concentration. […] Fluorescence intensity slowly increases up to a certain lipopeptide concentration and then breaks abruptly, indicating a sudden change in the aggregation state of lipopeptides. For each peptide, the critical micellar concentration (CMC) was evaluated by the intersection of the two lines. […] All the steady-state fluorescence measurements were carried out using a Perkin Elmer LS55 fluorescence spectrophotometer. All the experiments were conducted at 298 K in a thermostatic cell holder and in 20 mM phosphate buffer at pH 7.4 containing 0.8 mM EDTA and 150 mM NaCl unless otherwise specified. The CMC of the N-terminal myristoylated peptides was determined in water by fluorescence spectroscopy using 8-anilinonaphtalene-1-sulfonate (ANS) as the fluorescent probe. […] The ANS was excited at λex = 356 nm, and the fluorescence spectrum was measured for λem = 400–670 nm with excitation and emission bandwidths of 5 nm.

[3] = system: C. parapsilosis clinical isolates; format: cell-based, Candida parapsilosis
Protocol: as §1, §2

[4] = system: C. auris clinical isolates; format: cell-based, Candida auris; conditions: for MIC: CLSI broth microdilution, RPMI 1640
Protocol: as §1, §2

[5] = system: C. glabrata clinical isolates; format: cell-based, Candida glabrata; conditions: 16 h
Protocol: as §1, §2

[6] = isolate Candida parapsilosis 8, CLSI broth microdilution, RPMI 1640
[7] = isolate Candida parapsilosis 9, CLSI broth microdilution, RPMI 1640
[8] = isolate Candida parapsilosis 10, CLSI broth microdilution, RPMI 1640

SMILES | MIC90 [1] [µg/mL] | MIC ([1]; isolate Candida tropicalis 1) [µg/mL] | MIC ([1]; isolate Candida tropicalis 2) [µg/mL] | MIC ([1]; isolate Candida tropicalis 3) [µg/mL] | MIC ([1]; isolate Candida tropicalis 4) [µg/mL] | MIC ([1]; isolate Candida tropicalis 5) [µg/mL] | MIC ([1]; isolate Candida tropicalis 6) [µg/mL] | MIC ([1]; isolate Candida tropicalis 7) [µg/mL] | MIC ([1]; isolate Candida tropicalis 8) [µg/mL] | MIC ([1]; isolate Candida tropicalis 9) [µg/mL] | MIC ([1]; isolate Candida tropicalis 10) [µg/mL] | critical micellar concentration (CMC) [2] [µM] | MIC ([3]; clinical isolates, 16 h) [µg/mL] | MIC90 ([3]; clinical isolates, 16 h) [µg/mL] | MIC [3, 6] [µg/mL] | MIC [3, 7] [µg/mL] | MIC [3, 8] [µg/mL] | MIC ([4]; isolate Candida Auris 1) [µg/mL] | MIC ([4]; isolate Candida Auris 2) [µg/mL] | MIC ([4]; isolate Candida Auris 3) [µg/mL] | further results
CCCCCCCCCCCCCC(=O)N[C@@H](Cc1c[nH]c2ccccc12)C(=O)N[C@@H](Cc1ccccc1)C(=O)NCC(=O)N[C@@H](CCCCN)C(=O)N[C@@H](CC(C)C)C(=O)N[C@@H](Cc1ccc(O)cc1)C(=O)N[C@@H](CCCNC(=N)N)C(=O)NCC(=O)N[C@H](C(=O)N[C@H](C(=O)N[C@@H](CCCCN)C(=O)O)[C@@H](C)O)[C@@H](C)CC [Myr-A] (Myristoyl-WFGKLYRGITK-OH; C-terminus assumed) | 16 (≈ 10.1 µM) | 16 (≈ 10.1 µM) | 16 (≈ 10.1 µM) | 16 (≈ 10.1 µM) | 16 (≈ 10.1 µM) | 16 (≈ 10.1 µM) | 16 (≈ 10.1 µM) | 16 (≈ 10.1 µM) | 16 (≈ 10.1 µM) | 16 (≈ 10.1 µM) | 16 (≈ 10.1 µM) | 4.7 ± 0.8 | 16 (≈ 10.1 µM) | 16 (≈ 10.1 µM) | 16 (≈ 10.1 µM) | 16 (≈ 10.1 µM) | 16 (≈ 10.1 µM) | > 256 | > 256 | > 256 | MIC90 ([4]; clinical isolates, 16 h): >256 µg/mL; MIC ([4]; isolate Candida Auris 4): > 256 µg/mL; MIC ([4]; isolate Candida Auris 5): > 256 µg/mL; MIC ([4]; isolate Candida Auris 6): > 256 µg/mL; MIC ([4]; isolate Candida Auris 7): > 256 µg/mL; MIC ([4]; isolate Candida Auris 8): > 256 µg/mL; MIC ([4]; isolate Candida Auris 9): > 256 µg/mL; MIC ([4]; isolate Candida Auris 10): > 256 µg/mL; MIC [5]: 16 µg/mL (≈ 10.1 µM); MIC90 [5]: 16 µg/mL (≈ 10.1 µM)
CCCCCCCCCCCCCC(=O)N[C@@H](Cc1c[nH]c2ccccc12)C(=O)N[C@H](C(=O)N[C@H](C(=O)N[C@@H](CCCCN)C(=O)N[C@@H](CCCCN)C(=O)N[C@H](C(=O)N[C@@H](CCCCN)C(=O)NCC(=O)N[C@@H](CC(C)C)C(=O)N[C@@H](CC(C)C)C(=O)N[C@@H](CCCCN)C(=O)O)C(C)C)C(C)C)C(C)C [Myr-C] (Myristoyl-WVVKKVKGLLK-OH; C-terminus assumed) | 16 (≈ 10.6 µM) | 16 (≈ 10.6 µM) | 16 (≈ 10.6 µM) | 16 (≈ 10.6 µM) | 16 (≈ 10.6 µM) | 16 (≈ 10.6 µM) | 16 (≈ 10.6 µM) | 16 (≈ 10.6 µM) | 16 (≈ 10.6 µM) | 16 (≈ 10.6 µM) | 16 (≈ 10.6 µM) | 5.1 ± 0.4 | 32 (≈ 21.2 µM) | 32 (≈ 21.2 µM) | 32 (≈ 21.2 µM) | 32 (≈ 21.2 µM) | 32 (≈ 21.2 µM) | 16 (≈ 10.6 µM) | 16 (≈ 10.6 µM) | 32 (≈ 21.2 µM) | MIC ([4]; isolate Candida Auris 4): 32 µg/mL (≈ 21.2 µM); MIC ([4]; isolate Candida Auris 5): 64 µg/mL (≈ 42.4 µM); MIC ([4]; isolate Candida Auris 6): 32 µg/mL (≈ 21.2 µM); MIC ([4]; isolate Candida Auris 7): 32 µg/mL (≈ 21.2 µM); MIC ([4]; isolate Candida Auris 8): 32 µg/mL (≈ 21.2 µM); MIC ([4]; isolate Candida Auris 9): 16 µg/mL (≈ 10.6 µM); MIC ([4]; isolate Candida Auris 10): 32 µg/mL (≈ 21.2 µM); MIC [5]: 32 µg/mL (≈ 21.2 µM); MIC90 [5]: 32 µg/mL (≈ 21.2 µM)
CCCCCCCCCCCCCC(=O)N[C@@H](Cc1c[nH]c2ccccc12)C(=O)N[C@@H](CCCNC(=N)N)C(=O)NCC(=O)N[C@H](C(=O)N[C@H](C(=O)N[C@@H](CCCCN)C(=O)N[C@H](C(=O)N[C@H](C(=O)N[C@@H](CCCCN)C(=O)N[C@@H](CCCCN)C(=O)N[C@H](C(=O)O)C(C)C)C(C)C)C(C)C)[C@@H](C)O)[C@@H](C)CC [Myr-B] (Myristoyl-WRGITKVVKKV-OH; C-terminus assumed) | 8 (≈ 5.25 µM) | 8 (≈ 5.25 µM) | 8 (≈ 5.25 µM) | 8 (≈ 5.25 µM) | 8 (≈ 5.25 µM) | 8 (≈ 5.25 µM) | 8 (≈ 5.25 µM) | 8 (≈ 5.25 µM) | 8 (≈ 5.25 µM) | 8 (≈ 5.25 µM) | 8 (≈ 5.25 µM) | 5.1 ± 0.8 | 32 (≈ 21 µM) | 32 (≈ 21 µM) | 32 (≈ 21 µM) | 32 (≈ 21 µM) | 32 (≈ 21 µM) | 8 (≈ 5.25 µM) | 8 (≈ 5.25 µM) | 16 (≈ 10.5 µM) | MIC90 ([4]; clinical isolates, 16 h): 20 µM; MIC (Range) ([4]; clinical isolates, 16 h): 16 to 32 µg/mL; MIC ([4]; isolate Candida Auris 4): 32 µg/mL (≈ 21 µM); MIC ([4]; isolate Candida Auris 5): 32 µg/mL (≈ 21 µM); MIC ([4]; isolate Candida Auris 6): 16 µg/mL (≈ 10.5 µM); MIC ([4]; isolate Candida Auris 7): 16 µg/mL (≈ 10.5 µM); MIC ([4]; isolate Candida Auris 8): 16 µg/mL (≈ 10.5 µM); MIC ([4]; isolate Candida Auris 9): 32 µg/mL (≈ 21 µM); MIC ([4]; isolate Candida Auris 10): 32 µg/mL (≈ 21 µM); MIC90 [5]: 32 µg/mL (≈ 21 µM); MIC (Range) [5]: 16 to 32 µg/mL

Reference: publication PMC8875392, “Design and Characterization of Myristoylated and Non-Myristoylated Peptides Effective against Candida spp. Clinical Isolates” (International Journal of Molecular Sciences, 2022)
